This is an account of results in US20250114345A1, “COMPOUNDS AND COMPOSITIONS AS CBP/P300 DEGRADERS AND USES THEREOF” (Oncopia Therapeutics, Inc. d/b/a/ SK Life Science Labs, priority 2023, published 2025).

For the assay, the target named is T1, p300 (Homo sapiens, UniProt Q09472).
T1 construct: host or cells: A549 P300 HiBit cells
The assay is described as follows: P300 degradation, HiBit technology in A549 P300 HiBit cells (2 h). The assay is classed as cell-based. As to conditions: 2 hrs post treatment; for Dmax: A549, A549 P300 HiBit cells; for DC50: A549 P300 HiBit cells. How it is done: p300 and CBP degradation potency and Dmax were determined using in cell western (ICW) assay technology in H1299 cells or HiBit technology in A549 HiBit cells.
A549 P300 HiBit and A549 CBP HiBit cells were plated in separate 384-well, TC treated, white-opaque, flat-bottomed microplate. Cells were plated at a cell density of 0.2×10^4 cells per well in assay media comprised of F-12K, 10% heat inactivated FBS, and 1% penicillin/streptomycin. Assay microplates containing HiBit cells were placed in a 37° C., 5% CO2, tissue culture incubator and left to equilibrate overnight. The next day cells were treated with serial dilutions of test compound made up of 10 mM stock solutions in DMSO. 384-Well plates containing treated cells were then placed back into a 37° C., 5% CO2, tissue culture incubator. Assay microplates containing A549 P300 HiBit cells were incubated for 2 hrs post treatment before P300 destruction was assessed, while microplates containing A549 CBP HiBit cells were incubated for 24 hrs post treatment before CBP destruction was determined. On the day of each assay time point, microplates were removed from the tissue culture incubator and prepared HiBit Lytic detection buffer (Promega, cat #N3O40) was added to each plate. Plates were covered with aluminum foil and incubated for ten minutes at room temperature on an orbital shaker. After incubation, luminescent signal of each plate was measured using the Envision instrument (Perkin Elmer).

The structures appear in SMILES notation. Some results are limits rather than exact numbers.

T1 sequence (Q09472 whole entry): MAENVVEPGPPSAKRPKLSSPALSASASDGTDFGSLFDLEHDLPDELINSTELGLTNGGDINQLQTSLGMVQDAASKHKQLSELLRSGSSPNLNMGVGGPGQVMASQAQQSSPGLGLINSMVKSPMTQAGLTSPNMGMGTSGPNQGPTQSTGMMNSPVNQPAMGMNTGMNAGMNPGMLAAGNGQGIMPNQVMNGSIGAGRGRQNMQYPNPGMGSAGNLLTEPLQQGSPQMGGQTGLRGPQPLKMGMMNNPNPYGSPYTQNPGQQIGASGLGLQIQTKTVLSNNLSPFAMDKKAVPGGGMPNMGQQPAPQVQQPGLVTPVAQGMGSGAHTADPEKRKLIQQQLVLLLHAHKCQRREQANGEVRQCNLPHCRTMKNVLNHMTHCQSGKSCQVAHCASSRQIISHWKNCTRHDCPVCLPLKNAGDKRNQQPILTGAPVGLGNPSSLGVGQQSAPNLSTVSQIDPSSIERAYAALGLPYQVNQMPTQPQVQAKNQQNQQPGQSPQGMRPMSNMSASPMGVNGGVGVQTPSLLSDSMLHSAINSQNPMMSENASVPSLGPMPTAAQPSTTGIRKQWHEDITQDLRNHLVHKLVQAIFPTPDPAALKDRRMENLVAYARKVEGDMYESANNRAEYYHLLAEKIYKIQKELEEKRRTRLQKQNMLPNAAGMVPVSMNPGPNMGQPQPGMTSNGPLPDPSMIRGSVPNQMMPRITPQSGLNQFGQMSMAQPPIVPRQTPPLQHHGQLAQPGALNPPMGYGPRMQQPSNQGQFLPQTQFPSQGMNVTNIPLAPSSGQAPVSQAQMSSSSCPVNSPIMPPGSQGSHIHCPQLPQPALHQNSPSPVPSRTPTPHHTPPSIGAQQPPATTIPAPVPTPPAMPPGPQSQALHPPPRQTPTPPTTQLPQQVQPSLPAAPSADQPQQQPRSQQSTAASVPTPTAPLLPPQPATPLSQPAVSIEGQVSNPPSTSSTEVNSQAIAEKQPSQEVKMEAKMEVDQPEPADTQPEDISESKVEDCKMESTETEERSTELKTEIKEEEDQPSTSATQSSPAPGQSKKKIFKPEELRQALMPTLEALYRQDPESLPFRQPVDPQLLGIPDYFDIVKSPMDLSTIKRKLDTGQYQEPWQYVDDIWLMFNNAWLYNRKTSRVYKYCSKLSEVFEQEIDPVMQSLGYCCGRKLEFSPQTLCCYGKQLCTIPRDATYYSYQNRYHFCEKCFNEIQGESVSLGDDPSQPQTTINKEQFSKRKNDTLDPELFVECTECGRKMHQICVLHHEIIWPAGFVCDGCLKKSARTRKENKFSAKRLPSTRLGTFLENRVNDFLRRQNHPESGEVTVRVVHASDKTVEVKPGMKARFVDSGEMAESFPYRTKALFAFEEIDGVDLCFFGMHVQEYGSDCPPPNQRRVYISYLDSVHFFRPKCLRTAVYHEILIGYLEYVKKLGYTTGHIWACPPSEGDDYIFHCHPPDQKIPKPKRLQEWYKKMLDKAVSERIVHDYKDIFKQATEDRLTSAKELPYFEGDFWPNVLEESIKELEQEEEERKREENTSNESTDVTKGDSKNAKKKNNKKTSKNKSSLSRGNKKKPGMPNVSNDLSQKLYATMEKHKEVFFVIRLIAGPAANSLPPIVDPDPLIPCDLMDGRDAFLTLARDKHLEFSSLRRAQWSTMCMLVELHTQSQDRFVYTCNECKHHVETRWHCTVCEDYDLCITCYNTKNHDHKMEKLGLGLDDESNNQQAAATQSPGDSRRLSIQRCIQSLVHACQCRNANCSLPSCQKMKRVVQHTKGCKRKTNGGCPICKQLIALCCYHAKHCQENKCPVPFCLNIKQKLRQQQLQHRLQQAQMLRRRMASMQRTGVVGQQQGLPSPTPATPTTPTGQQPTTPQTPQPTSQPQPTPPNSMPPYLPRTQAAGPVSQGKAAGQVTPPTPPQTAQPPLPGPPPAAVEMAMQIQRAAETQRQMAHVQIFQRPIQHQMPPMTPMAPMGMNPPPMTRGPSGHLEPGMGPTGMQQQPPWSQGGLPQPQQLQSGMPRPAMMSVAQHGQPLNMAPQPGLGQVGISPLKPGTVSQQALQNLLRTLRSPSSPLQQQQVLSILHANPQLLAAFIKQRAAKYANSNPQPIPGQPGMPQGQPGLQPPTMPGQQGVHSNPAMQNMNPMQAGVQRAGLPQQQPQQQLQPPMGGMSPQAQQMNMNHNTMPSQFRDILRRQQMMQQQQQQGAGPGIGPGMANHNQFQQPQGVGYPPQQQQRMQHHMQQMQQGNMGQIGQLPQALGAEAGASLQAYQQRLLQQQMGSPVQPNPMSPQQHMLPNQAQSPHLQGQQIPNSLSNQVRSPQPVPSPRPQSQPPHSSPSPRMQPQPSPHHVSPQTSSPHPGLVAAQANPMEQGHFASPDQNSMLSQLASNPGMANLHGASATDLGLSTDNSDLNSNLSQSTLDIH

On to `CC(C)c1cc(-c2cccc3cc(-c4ccc(C(=O)NCC#Cc5cc6c(ccn6C6CCC(=O)NC6=O)cn5)nc4)ncc23)cc2c1n(C)c(=O)n2C` (stereo not shown) [Example A22, N-(3-(1-(2,6-Dioxopiperidin-3-yl)-1H-pyrrolo[3,2-c]pyridin-6-yl)prop-2-yn-1-yl)-5-(8-(7-isopropyl-1,3-dimethyl-2-oxo-2,3-dihydro-1H-benzo[d]imidazol-5-yl)isoquinolin-3-yl)picolinamide], for which the Dmax was in the range of 20 to 39% and the DC50 was 0.01 to 0.099 µM.
For `Cc1cc2c(N3CCN(C)c4cc(-c5ccc(C(=O)NCC#Cc6cc7c(C8CCC(=O)NC8=O)cccc7o6)nc5)ncc43)cccc2n(C)c1=O` (stereo not shown) [Example B114, 5-(4-(1,3-dimethyl-2-oxo-1,2-dihydroquinolin-5-yl)-1-methyl-1,2,3,4-tetrahydropyrido [3,4-b]pyrazin-7-yl)-N-(3-(4-(2,6-dioxo-piperidin-3-yl)benzofuran-2-yl)prop-2-yn-1-yl)picolinamide] the same measures were above 80% and below 0.001 µM.
With `CC(C)c1cc(C(F)(F)c2ccc(-c3ccc(C(=O)NCC#Cc4ccc5occ(C6CCC(=O)NC6=O)c5c4)nc3)nc2)cc2c1n(C)c(=O)n2C` (stereo not shown) [Example A81, 5-(difluoro(7-isopropyl-1,3-dimethyl-2-oxo-2,3-dihydro-1H-benzo[d]imidazol-5-yl)methyl)-N-(3-(3-(2,6-dioxopiperidin-3-yl)benzofuran-5-yl)prop-2-yn-1-yl)-[2,3′-bipyridine]-6′-carboxamide], the Dmax is below 20% and the DC50 was above 1 µM.
`Cn1c(=O)oc2ccc(-c3cccc4cc(-c5ccc(C(=O)NCC#Cc6ccc7occ(C8CCC(=O)NC8=O)c7c6)nc5)ncc34)cc21` (stereo not shown) [Example A101, N-(3-(3-(2,6-dioxo-piperidin-3-yl)benzofuran-5-yl)prop-2-yn-1-yl)-5-(8-(3-methyl-2-oxo-2,3-dihydrobenzo[d]oxazol-5-yl)isoquinolin-3-yl)picolinamide] came in with a Dmax below 20% and a DC50 above 1 µM.
For the molecule `CCc1cc(N(C)c2ccc(-c3cnc(C(=O)NCC#Cc4cccc(NC5CCC(=O)NC5=O)c4)c(C)c3)c(C(F)(F)F)c2)c2cc(C)c(=O)n(C)c2c1` (stereo not shown) [Example B14, N-(3-(3-((2,6-Dioxopiperidin-3-yl)amino)phenyl)prop-2-yn-1-yl)-5-(4-((7-ethyl-1,3-dimethyl-2-oxo-1,2-dihydroquinolin-5-yl)(methyl)amino)-2-(trifluoromethyl)phenyl)-3-methylpicolinamide], the Dmax was in the range of 60 to 79% and the DC50 was in the range of 0.01 to 0.099 µM.
For the molecule `CCc1cc(-c2cccc3cc(-c4ccc(C(=O)NCC#Cc5ccc6c(C)nn(C7CCC(=O)NC7=O)c6c5)nc4)ncc23)c2cc(C)c(=O)n(C)c2c1` (stereo not shown) [Example B1, N-(3-(1-(2,6-Dioxopiperidin-3-yl)-3-methyl-1H-indazol-6-yl)prop-2-yn-1-yl)-5-(8-(7-ethyl-1,3-dimethyl-2-oxo-1,2-dihydroquinolin-5-yl)isoquinolin-3-yl)picolinamide], the Dmax was in the range of 60 to 79% and the DC50 is 0.01 to 0.099 µM.
As for `Cc1cc(N2CCCc3nc(-c4ccc(C(=O)NCC#Cc5cc6c(C7CCC(=O)NC7=O)cccc6o5)nc4)ncc32)c2cc(C)c(=O)n(C)c2n1` (stereo not shown) [Example B118, N-(3-(4-(2,6-dioxopiperidin-3-yl)benzofuran-2-yl)prop-2-yn-1-yl)-5-(5-(2,6,8-trimethyl-7-oxo-7,8-dihydro-1,8-naphthyridin-4-yl)-5,6,7,8-tetrahydropyrido[3,2-d]pyrimidin-2-yl) picolinamide], the Dmax is above 80% and the DC50 fell in the range of 0.001 to 0.0099 µM.
As to `Cn1c(=O)n(C)c2c(-n3cccn3)nc(-c3cccc4cc(-c5ccc(C(=O)NCC#Cc6ccc7occ(C8CCC(=O)NC8=O)c7c6)nc5)ncc34)cc21` (stereo not shown) [Example A152, 5-(8-(1,3-dimethyl-2-oxo-4-(1H-pyrazol-1-yl)-2,3-dihydro-1H-imidazo[4,5-c]pyridin-6-yl)iso-quinolin-3-yl)-N-(3-(3-(2,6-dioxopiperidin-3-yl)benzofuran-5-yl)prop-2-yn-1-yl)picolinamide], the Dmax was in the range of 20 to 39% and the DC50 is 0.01 to 0.099 µM.
As to `Cc1cc(-c2ccc(N(C)c3cc4c(c(C(C)C)n3)n(C)c(=O)n4C)cn2)cnc1C(=O)NCC#Cc1ccc2occ(C3CCC(=O)NC3=O)c2c1` (stereo not shown) [Example A60, N-(3-(3-(2,6-dioxopiperidin-3-yl)benzofuran-5-yl)prop-2-yn-1-yl)-5-((4-isopropyl-1,3-dimethyl-2-oxo-2,3-dihydro-1H-imidazo[4,5-c]pyridin-6-yl)(methyl)amino)-5′-methyl-[2,3′-bipyridine]-6′-carboxamide], the Dmax is below 20% and the DC50 is above 1 µM.
`Cc1cc(-c2ccc(N(C)c3cc(C(C)C)c4c(c3)n(C)c(=O)n4C)cc2C#N)cnc1C(=O)NCC#Cc1cccc(NC2CCC(=O)NC2=O)c1` (stereo not shown) [Example A46, 5-(2-cyano-4-((7-isopropyl-1,3-dimethyl-2-oxo-2,3-dihydro-1H-benzo[d]imidazol-5-yl)(methyl)amino)phenyl)-N-(3-(3-((2,6-dioxopiperidin-3-yl)amino)phenyl)prop-2-yn-1-yl)-3-methylpicolinamide]: the Dmax is above 80% and the 50% degradation concentration (DC50) fell in the range of 0.01 to 0.099 µM.
`Cc1cc(-c2cn(C)c(=O)c3cc(-c4ccc(C(=O)NCC#Cc5ccc6occ(C7CCC(=O)NC7=O)c6c5)nc4)ncc23)cc2c1n(C)c(=O)n2C` (stereo not shown) [Example A107, N-(3-(3-(2,6-dioxo-piperidin-3-yl)benzofuran-5-yl)prop-2-yn-1-yl)-5-(6-methyl-5-oxo-8-(1,3,7-trimethyl-2-oxo-2,3-dihydro-1H-benzo[d]imidazol-5-yl)-5,6-dihydro-2,6-naphthyridin-3-yl)picolinamide]: the Dmax was above 80% and the DC50 was below 0.001 µM.
Turning to `CCc1cc2c(cc(C)c(=O)n2C)c(-c2cccc3cc(-c4ccc(C(=O)NCC#Cc5ccc6occ(C7CCC(=O)NC7=O)c6c5)nc4)ncc23)n1` (stereo not shown) [Example B93, N-(3-(3-(2,6-dioxopiperidin-3-yl)benzofuran-5-yl)prop-2-yn-1-yl)-5-(8-(7-ethyl-1,3-dimethyl-2-oxo-1,2-dihydro-1,6-naphthyridin-5-yl)isoquinolin-3-yl)picolinamide], the Dmax lay in the range of 60 to 79% and the DC50 fell in the range of 0.001 to 0.0099 µM.
Take `Cc1cc2c(N3CCCc4nc(-c5ccc(C(=O)NCC#Cc6ccc7occ(C8(C)CCC(=O)NC8=O)c7c6)nc5)ncc43)cc(C3CCOCC3)cc2n(C)c1=O` (stereo not shown) [Example B85, 5-(5-(1,3-dimethyl-2-oxo-7-(tetrahydro-2H-pyran-4-yl)-1,2-dihydroquinolin-5-yl)-5,6,7,8-tetrahydropyrido[3,2-d]pyrimidin-2-yl)-N-(3-(3-(3-methyl-2,6-dioxopiperidin-3-yl)benzofuran-5-yl)prop-2-yn-1-yl)picolinamide]: the Dmax is below 20% and the DC50 was above 1 µM.
As for `CN1CCN(c2ccc3c(c2)n(C)c(=O)n3C)c2cnc(-c3ccc(C(=O)NCC#Cc4cc5c(C6CCC(=O)NC6=O)nccc5o4)nc3)cc21` (stereo not shown) [Example A218, 5-(4-(1,3-dimethyl-2-oxo-2,3-dihydro-1H-benzo[d]imidazol-5-yl)-1-methyl-1,2,3,4-tetrahydropyrido[3,4-b]pyrazin-7-yl)-N-(3-(4-(2,6-dioxo-piperidin-3-yl)furo[3,2-c]pyridin-2-yl)prop-2-yn-1-yl)picolinamide], the Dmax is above 80% and the half-maximal degradation concentration (DC50) is below 0.001 µM.

Broadly, the Dmax is the largest share of the target that was removed. A low value points to a partial loss of target. In general, DC50 refers to the midpoint of the concentration-degradation curve. Read a low DC50 as degradation at low concentration.
